Data from patent US20080176810A1, “Use of 3, 4', 5-Trihydroxy-Stilbene-3-Beta-D-glucoside in Prepartion of Medicines For Treating and/or Preventing Ischemic Heart Disease” (SHENZHEN NEPTUNUS PHARMACEUTICAL CO., LTD., priority 2004, published 2008).
Several values for one entry are separate records, joined by “and”; a condition that tells them apart may be missing. Identical values can stand only once. Entries after “also recorded” stand apart in the source; their conditions may differ.

Experiment: Pharmacokinetics of single-dose iv in Beagle dogs;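 further: plasma levels in healthy adult Beagle dogs, five per dose group, after slow forelimb iv injection over 5 min, parameters from non-compartmental statistical moment analysis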
Settings: for maximum plasma drug concentration: dogs
[1] = Beagle dogs, single dose iv, 10 mg/Kg, non compartmental
[2] = Beagle dogs, single dose iv, 20 mg/Kg, non compartmental
[3] = Beagle dogs, single dose iv, 30 mg/Kg, non compartmental

Description: Pharmacokinetical studies were carried out in three groups at the doses of 10 mg/Kg, 20 mg/Kg and 30 mg/Kg. Five healthy adult Beagle dogs were chosen into each dose group. […] The intravenous injection was performed in one forelimb of each tested dog within 5 min in a very slow manner. Three hours after the intravenous injection, the dogs could be fed. 3 ml of venous blood was sampled in heparinized tubes from another forelimb of each tested dog before and 0, 5, 10, 20, 40, 60, 90, 120, 180, 240, 300, 360 and 480 min after administration. Blood samples were centrifuged to obtain 1 ml of plasma.
Non compartmental modeling method (statistical moment) was applied in the data analysis. Estimating formula of corresponding parameters is as follows:
AUC0˜τ=Σ(Ci+Ci−1)×(ti−ti−1)/2
AUC0˜∞=Σ(Ci+Ci−1)×(ti−ti−1)/2+Cn/λ
AUMC0˜∞=Σ(Citi+Ci−1ti−1)×(ti−ti−1)/2+Cn(1/λ^2+tn/λ)
Where, in the formula, λ indicates the number of terminal eliminating rate of the concentration-time curve. tn and Cn represent the latest time of blood-sampling and plasma drug concentration, respectively. Pharmacokinetical parameters such as tmax and Cmax take the corresponding measuring value of plasma samples.
These pharmacokinetic parameters are obtained with non compartmental modeling method.

With “3,4′,5-trihydroxy-stilbene-3-β-D-glucoside [TSG]” the “AUC0~∞” value (10 mg/kg iv) was 315.42 ± 60.82 µg·min/mL and 315 µg·min/mL, the “terminal elimination half life (t1/2)” value (10 mg/kg iv) was 2.7978 ± 2.8483 h and 2.8 h and the “AUC0~∞” value (20 mg/kg iv) was 745.75 ± 175.84 µg·min/mL and 745 µg·min/mL. The “terminal elimination half life (t1/2)” value (20 mg/kg iv) was 2.5175 ± 0.9553 h and 2.53 h, the “AUC0~∞” value (30 mg/kg iv) was 1552.71 ± 227.28 µg·min/mL and 1552 µg·min/mL and the “terminal elimination half life (t1/2)” value (30 mg/kg iv) was 6.2182 ± 6.2163 h and 6.22 h. For the same substance, the “maximum plasma drug concentration” value (30 mg/kg iv) was 100 µg/mL, the “maximum plasma drug concentration” value (30 mg/kg iv, listed as 3,4′,5-trihydroxy-stilbene-3-β-D-glucoside) was “about 100 μg/ml; also recorded: approximately 0.25 mM” and the “AUC0~480” value [1] was 283.05 ± 49.85 µg·min/mL. The “AUC0~∞” value [1] was 315.42 ± 60.82 µg·min/mL, the CI [1] was 0.03 ± 0.01 L/min and the MRT [1] was 2.3343 ± 2.0812 h. For the same substance, the Vss [1] was 4.21 ± 3.06 L, the t1/2 [1] was 2.7978 ± 2.8483 h and the “AUC0~480” value [2] was 718.32 ± 179.10 µg·min/mL. For the same substance, the “AUC0~∞” value [2] was 745.75 ± 175.84 µg·min/mL, the CI [2] was 0.03 ± 0.01 L/min and the MRT [2] was 1.301 ± 0.204 h. For the same substance, the Vss [2] was 2.24 ± 0.78 L, the t1/2 [2] was 2.5175 ± 0.9553 h and the “AUC0~480” value [3] was 1432.17 ± 349.97 µg·min/mL. For the same substance, the “AUC0~∞” value [3] was 1552.71 ± 227.28 µg·min/mL, the CI [3] was 0.02 ± 0.00 L/min and the MRT [3] was 3.068 ± 4.0013 h. For the same substance, the Vss [3] was 4.25 ± 6.35 L and the t1/2 [3] was 6.2182 ± 6.2163 h.
